From patent US6630469B2, “5-HT7 receptor antagonists” (Bristol-Myers Squibb Company, priority 2000, dated 2003) come the findings set out here.

Each structure is given as a SMILES string. Counter-ions that a name gives are not always drawn.

The test system of one data set is rat pup isolation-induced ultrasonic vocalization. Description: rat pup isolation-induced ultrasonic vocalization test.
Details: not given
The class given is in vivo. The text has this:
The compounds of this invention are useful as antagonists or partial agonists for the treatment of CNS and ocular disorders. […] A compound of this invention has also been assessed in an in vivo model, the rat pup isolation-induced ultrasonic vocalization test. This animal model has proven to be a sensitive and reliable method for detecting anxiolytics and antidepressants across a broad spectrum of pharmacological classes such as benzodiazepines, serotonin reuptake inhibitors, serotonin agonists and NMDA antagonists (Gardner, C.; Drug Devel. Res. 1985, 5,185-193 and Winslow, J.; Insel, T.; Psychopharmacology 1991, 105, 513-520).
With `Cc1ccc([C@H](C)Nc2nc(N)nc(NCCOc3ccccc3)n2)cc1` [N^2-[(1S)-1-(4-Methylphenyl)ethyl]-N^4-(2-phenoxyethyl)-1,3,5-triazine-2,4,6-triamine], the “amount of compound dosed which reduced the rat pup ultrasonic vocalization by 50% (ID50)” value worked out at 23.8 mg/kg; the “locomotor activity at doses suppressing ultrasonic vocalization” value is “did not suppress locomotor activity”; the “supression of rat pup ultrasonic vocalization” value is “dose dependent and significant supression of rat pup ultrasonic vocalization”.

For a further data set, the target named is T1, human 5-HT7 receptor (Homo sapiens, UniProt P34969).
T1 construct: expressed in transfected cells; host or cells: CHO cells
T1 sequence (P34969 whole entry): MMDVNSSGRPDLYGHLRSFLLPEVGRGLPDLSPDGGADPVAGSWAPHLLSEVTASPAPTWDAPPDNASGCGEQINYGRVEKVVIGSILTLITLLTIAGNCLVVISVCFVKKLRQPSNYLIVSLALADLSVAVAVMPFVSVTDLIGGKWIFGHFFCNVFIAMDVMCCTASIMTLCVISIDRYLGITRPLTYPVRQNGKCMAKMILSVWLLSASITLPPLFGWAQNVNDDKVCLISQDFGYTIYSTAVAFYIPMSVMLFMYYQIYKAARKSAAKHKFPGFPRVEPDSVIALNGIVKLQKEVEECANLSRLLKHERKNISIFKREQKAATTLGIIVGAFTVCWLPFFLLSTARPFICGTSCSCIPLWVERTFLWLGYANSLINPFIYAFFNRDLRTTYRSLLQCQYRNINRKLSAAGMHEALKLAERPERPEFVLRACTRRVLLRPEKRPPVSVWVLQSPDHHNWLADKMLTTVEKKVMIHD
Description: 5-HT7 Receptor Binding Assay. The following applies: membranes of CHO cells expressing human 5-HT7 receptor; 1 nM 3H-5-carboxamidotryptamine; 25° C., 60 minutes. Put shortly: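 Competition against 1 nM ^3H-5-carboxamidotryptamine over 0.1–1000 nM compound, 60 min, 25° C, 50 mM HEPES, 30 ug membrane protein from CHO cells expressing the human receptor. 10 uM serotonin defined non-specific binding. Bound label counted after filtration; IC50 from non-linear regression.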
With `Fc1ccc(CNc2ccnc(NCCc3ccccc3)n2)cc1Cl` [N^4-(3-Chloro-4-fluorophenylmethyl)-N^2-(2-phenylethyl)pyrimidine-2,4-diamine], the IC50 (commonly the midpoint of a concentration-inhibition curve) is no more than 50 nM.

Regarding `Cc1ccc(CNc2ccnc(NCCOc3ccccc3)n2)cc1Cl` [N^4-(3-Chloro-4-methylphenylmethyl)-N^2-(2-phenoxyethyl)pyrimidine-2,4-diamine], the IC50 was no more than 50 nM.

Consider `Cc1ccc(CNc2ccnc(NCCc3ccccc3)n2)cc1Cl` [N^4-(3-Chloro-4-methylphenylmethyl)-N^2-(2-phenylethyl)pyrimidine-2,4-diamine], for which the IC50 was in the range of 101 to 200 nM.

On to `Clc1cccc(CNc2ccnc(NCCOc3ccccc3)n2)c1` [N^4-(3-Chlorophenylmethyl)-N^2-(2-phenoxyethyl)pyrimidine-2,4-diamine], for which the IC50 is no more than 50 nM.

`Clc1cccc(CNc2ccnc(NCCc3ccccc3)n2)c1` [N^4-(3-Chlorophenylmethyl)-N^2-(2-phenylethyl)pyrimidine-2,4-diamine] showed an IC50 of 101 to 200 nM.

As to `Fc1cccc(CNc2ccnc(NCCOc3ccccc3)n2)c1` [N^4-(3-Fluorophenylmethyl)-N^2-(2-phenoxyethyl)pyrimidine-2,4-diamine], the IC50 was 51 to 100 nM.

For the compound `Fc1cccc(CNc2ccnc(NCCc3ccccc3)n2)c1` [N^4-(3-Fluorophenylmethyl)-N^2-(2-phenylethyl)pyrimidine-2,4-diamine], the IC50 was no more than 50 nM.

Compound `COc1cccc(CNc2ccnc(NCCc3ccccc3)n2)c1` [N^4-(3-Methoxyphenylmethyl)-N^2-(2-phenylethyl)pyrimidine-2,4-diamine] yielded an IC50 of no more than 50 nM.

The compound `Cc1cccc(CNc2ccnc(NCCOc3ccccc3)n2)c1` [N^4-(3-Methylphenylmethyl)-N^2-(2-phenoxyethyl)pyrimidine-2,4-diamine] gave a half-maximal inhibitory concentration (IC50) of no more than 50 nM.

`Cc1cccc(CNc2ccnc(NCCc3ccccc3)n2)c1` [N^4-(3-Methylphenylmethyl)-N^2-(2-phenylethyl)pyrimidine-2,4-diamine] yielded an IC50 of no more than 50 nM.

Compound `c1ccc(OCCNc2nccc(NCc3cccc4c3OCO4)n2)cc1` [N^4-(4-Benzodioxolylmethyl)-N^2-(2-phenoxyethyl)pyrimidine-2,4-diamine] came in with an IC50 of no more than 50 nM.

In turn, `c1ccc(CCNc2nccc(NCc3cccc4c3OCO4)n2)cc1` [N^4-(4-Benzodioxolylmethyl)-N^2-(2-phenylethyl)pyrimidine-2,4-diamine] showed an IC50 of no more than 50 nM.

In turn, `Clc1ccc(CNc2ccnc(NCCOc3ccccc3)n2)cc1` [N^4-(4-Chlorophenylmethyl)-N^2-(2-phenoxyethyl)pyrimidine-2,4-diamine] showed an IC50 of no more than 50 nM.

The compound `Clc1ccc(CNc2ccnc(NCCc3ccccc3)n2)cc1` [N^4-(4-Chlorophenylmethyl)-N^2-(2-phenylethyl)pyrimidine-2,4-diamine] gave an IC50 of no more than 50 nM.

As to `COc1ccc(CNc2ccnc(NCCc3ccccc3)n2)cc1` [N^4-(4-Methoxyphenylmethyl)-N^2-(2-phenylethyl)pyrimidine-2,4-diamine], the IC50 is no more than 50 nM.

Take `CC(Nc1ccnc(NCCOc2ccccc2)n1)c1ccc(Cl)cc1` (centres unmarked) [N^4-[1-(4-Chlorophenyl)ethyl]-N^2-(2-phenoxyethyl)pyrimidine-2,4-diamine]: the IC50 was no more than 50 nM.

Regarding `CC(Nc1ccnc(NCCc2ccccc2)n1)c1ccc(Cl)cc1` (centres unmarked) [N^4-[1-(4-Chlorophenyl)ethyl]-N^2-(2-phenylethyl)pyrimidine-2,4-diamine], the IC50 is no more than 50 nM.

Compound `CC(Nc1ccnc(NCCc2ccccc2)n1)c1ccc(F)cc1` (centres unmarked) [N^4-[1-(4-Fluorophenyl)ethyl]-N^2-(2-phenylethyl)pyrimidine-2,4-diamine] had an IC50 of no more than 50 nM.

Turning to `C[C@H](Nc1cc(NCCc2ccc(N)cc2)ncn1)c1ccccc1` [N^4-[2-(4-Aminophenyl)ethyl]-N^6-[(1S)-1-phenylethyl]pyrimidine-4,6-diamine], the IC50 was in the range of 101 to 200 nM.

As to `C[C@H](Nc1cc(NCCc2ccc(Br)cc2)ncn1)c1ccccc1` [N^4-[2-(4-Bromoophenyl)ethyl]-N^6-[(1S)-1-phenylethyl]pyrimidine-4,6-diamine], the IC50 lay within 101 to 200 nM.

Turning to `CC(Nc1nccc(NCCOc2ccc(F)cc2)n1)c1ccccc1` (centres unmarked) [N^4-[2-(4-Fluorophenoxy)ethyl]-N^2-(1-phenylethyl)pyrimidine-2,4-diamine], the IC50 is no more than 50 nM.

The compound `C[C@H](Nc1cc(NCCc2ccc(O)cc2)ncn1)c1ccccc1` [N^4-[2-(4-Hydroxyphenyl)ethyl]-N^6-[(1S)-1-phenylethyl]pyrimidine-4,6-diamine] gave an IC50 of no more than 50 nM.

On to `Fc1ccc(C(F)(F)F)cc1CNc1ccnc(NCCOc2ccccc2)n1` [N^4-[2-Fluoro-5-(trifluoromethyl)phenylmethyl]-N^2-(2-phenoxyethyl)pyrimidine-2,4-diamine], for which the IC50 is no more than 50 nM.

The compound `Fc1cc(CNc2ccnc(NCCOc3ccccc3)n2)cc(C(F)(F)F)c1` [N^4-[3-Fluoro-5-(trifluoromethyl)phenylmethyl]-N^2-(2-phenoxyethyl)pyrimidine-2,4-diamine] yielded an IC50 of 101 to 200 nM.

Regarding `CC(C)c1ccc(CNc2ccnc(NCCOc3ccccc3)n2)cc1` [N^4-[4-(1-Methylethyl)phenylmethyl]-N^2-(2-phenoxyethyl)pyrimidine-2,4-diamine], the IC50 is no more than 50 nM.

For `Fc1ccc(CNc2ccnc(NCCOc3ccccc3)n2)cc1C(F)(F)F` [N^4-[4-Fluoro-3-(trifluoromethyl)phenylmethyl]-N^2-(2-phenoxyethyl)pyrimidine-2,4-diamine], the IC50 was in the range of 51 to 100 nM.

`Fc1ccc(CNc2ccnc(NCCc3ccccc3)n2)cc1C(F)(F)F` [N^4-[4-Fluoro-3-(trifluoromethyl)phenylmethyl]-N^2-(2-phenylethyl)pyrimidine-2,4-diamine]: the IC50 fell in the range of 101 to 200 nM.

`Cc1ccc([C@@H](C)Nc2ccnc(NCCOc3ccccc3)n2)cc1` [N^4-[(1R)-1-(4-Methylphenyl)ethyl]-N^2-(2-phenoxyethyl)pyrimidine-2,4-diamine] displayed an IC50 of 51 to 100 nM.

The compound `Cc1ccc([C@H](C)Nc2ccnc(NCCOc3ccccc3)n2)cc1` [N^4-[(1S)-1-(4-Methylphenyl)ethyl]-N^2-(2-phenoxyethyl)pyrimidine-2,4-diamine] gave an IC50 of no more than 50 nM.

In turn, `C[C@H](Nc1ccnc(NCCc2ccccc2)n1)c1ccccc1` [N^4-[(1S)-1-Phenylethyl]-N^2-(2-phenylethyl)pyrimidine-2,4-diamine] showed an IC50 of no more than 50 nM.

Test system in another data set: not given
Assay: not given
Details: not given
On to `C[C@H](Nc1nc(N)nc(NCCOc2ccccc2)n1)c1ccccc1` (as salt: TFA) [Compound 41, N^2-[2-(Phenoxy)ethyl]-N^4-[(1S)-1-phenylethyl]-1,3,5-triazine-2,4,6-triamine], for which the melting point (as a rule, the temperature of the solid-liquid transition) is 207 to 208 °C.

The compound `C[C@H](Nc1nc(N)nc(NCCc2ccccn2)n1)c1ccc(F)cc1` (as salt: TFA) [Example 18, N^2-[(1S)-1-(4-Fluorophenyl)ethyl]-N^4-[2-(2-pyridinyl)ethyl]-1,3,5-triazine-2,4,6-triamine] came in with a melting point of 161 °C.
